Reference: patent US5461036A, “Spicamycin derivatives and their use as anticancer agents” (priority 1991, dated 1995)
Read-outs that look alike come from different tables or passages of the source.

Assays:
in vivo = test: in vivo; set-up: species or system nude mice (BALB/c nu/nu); details: mouse, in vivo; intravenous, continuous 5 days, nude mice; maximum dose at which no animal was dead within 2 weeks; read-out: Maximum tolerated dose
Procedure: (1) Measurement of maximum tolerated dose (MTD) of the spicamycin derivatives in nude mice
The spicamycin derivative was dissolved in dimethylsulfoxide (DMSO) and Cremophor EL® at the same volume as DMSO was added. Physiological saline was added so that the concentration of DMSO and Cremophor EL® was finally adjusted to 1%, respectively, and thus injection liquids of spicamycin derivative in a variety of concentrations were prepared. […] The maximum dose at which no animal was dead was defined as the MTD of the respective derivatives.

[1] = test system: human colon cancer (COL-1); assay type: in vivo, mouse; details: for TGIR (tumor growth inhibition rate, maximum) / minTx (relative tumor volume when reduced to the minimum): COL-1 s.c. in nude mice, at MTD; for TGIR (tumor growth inhibition rate, maximum): TGIR=(1-Tx/Cx)×100, maximum during about 3 weeks; for minTx (relative tumor volume when reduced to the minimum): minimum throughout the test period
Procedure: (2) Method for measuring the antitumor effect on human colon cancer (COL-1)
COL-1, a human colon cancer, was transplanted subcutaneously into nude mice. When the tumor had grown to a volume of about 100 mm^3, the nude mice were divided into groups of 5 animals so that the average tumor volumes of respective groups were equalized. The respective spicamycin derivatives were administered to test groups at their MTDs, while physiological saline (solvent) containing 1% DMSO and 1% Cremophor EL® was administered to the control group. […] RV is expressed as RV =Vn/Vo where Vn is the tumor volume on day n and Vo is the initial tumor volume at the time treatment was commenced.

[2] = /minimum effective dose (effective: TGIR≥50)

Compound | MTD at 336 h (in vivo) [mg/kg/day] | TGIR (tumor growth inhibition rate, maximum) [1] | minTx (relative tumor volume when reduced to the minimum) [1] | Therapeutic index ([1]; mouse, in vivo) | Therapeutic index [1, 2]
CCCCCCCCCCC[C@H](O)CC(=O)NCC(=O)NC1C(O)C(O)C(Nc2ncnc3[nH]cnc23)OC1C(O)CO (single isomer, unassigned) [SPK274, 6-[4'-N-(N'-(s)-3-hydroxytetradecanoylglydyl)spicaminyl-amino]purine] | 24 | 92 | 0.16 | 4 | –
CC(C)CCCCCCCCC(=O)NCC(=O)N[C@@H]1[C@@H](O)[C@@H](O)[C@@H](Nc2ncnc3[nH]cnc23)O[C@H]1C(O)CO (stereo partly shown) [SPK9, 6-[4'-N-(N'-10-methylundecanoylglycyl)spicaminyl-amino]purine] | 6 | 99 | 0.05 | 4 | –
C=CCCCCCCCCCC(=O)NCC(=O)N[C@@H]1[C@@H](O)[C@@H](O)[C@@H](Nc2ncnc3[nH]cnc23)O[C@H]1C(O)CO (stereo partly shown) [SPK44, 6-[4 '-N-(N'-11-dodecenoylglycyl)spicaminyl-amino]purine] | 4 | 94 | 0.16 | – | 4
O=C(CCCCCCCCCCBr)NCC(=O)N[C@@H]1[C@@H](O)[C@@H](O)[C@@H](Nc2ncnc3[nH]cnc23)O[C@H]1C(O)CO (stereo partly shown) [SPK64, 6-[4'-N-(N'-11-bromoundecanoylglycyl)spicaminyl-amino]purine] | 18 | 95 | – | 4 | –
CCCCCCCCC/C=C/C(=O)NCC(=O)N[C@@H]1[C@@H](O)[C@@H](O)[C@@H](Nc2ncnc3[nH]cnc23)O[C@H]1C(O)CO (stereo partly drawn) [SPK86, 6-[4'-N-(N'-trans-2-dodecenoylglycyl)spicaminyl-amino]purine] | 18 | 86 | – | – | –
CCCCCCCCCCCCCCC(O)C(=O)NCC(=O)NC1C(O)C(O)C(Nc2ncnc3[nH]cnc23)OC1C(O)CO (stereo not shown) [SPK112, 6-[4'-N-(N'-2-hydroxyhexadecanoylglycyl)spicaminyl-amino]purine] | 0.85 | 82 | – | – | 4
CCCCCCCCCCCCCC(O)CC(=O)NCC(=O)NC1C(O)C(O)C(Nc2ncnc3[nH]cnc23)OC1C(O)CO (stereo not shown) [SPK115, 6-[4'-N-(N'-3-hydroxyhexadecanoylglycyl)-spicaminyl-amino]purine] | 3 | 99 | 0.08 | – | 4
O=C(CCCCCCCCCCCCl)NCC(=O)N[C@@H]1[C@@H](O)[C@@H](O)[C@@H](Nc2ncnc3[nH]cnc23)O[C@H]1C(O)CO (stereo partly shown) [SPK132, 6-[4'-N-(N'-12-chlorododecanoylglycyl)spicaminyl-amino]purine] | 12 | 98 | 0.08 | 4 | –
CCCCCCCCCCCCCCC(Cl)C(=O)NCC(=O)NC1C(O)C(O)C(Nc2ncnc3[nH]cnc23)OC1C(O)CO (stereo not shown) [SPK135, 6-[4'-N-(N'-2-chlorohexadecanoylglycyl)spicaminylamino]purine] | 24 | 93 | – | 4 | –
CC(C)CCCCCCCCCCC(=O)NCC(=O)N[C@@H]1[C@@H](O)[C@@H](O)[C@@H](Nc2ncnc3[nH]cnc23)O[C@H]1C(O)CO (stereo partly shown) [SPK136, 6-[4'-N-(N'-12-methyltridecanoylglycyl)spicaminyl-amino]purine] | 2 | 84 | – | – | 4
C=CCCCCCCCCCCC(=O)NCC(=O)N[C@@H]1[C@@H](O)[C@@H](O)[C@@H](Nc2ncnc3[nH]cnc23)O[C@H]1C(O)CO (stereo partly shown) [SPK142, 6-[4'-N-(N'-12-tridecenoylglycyl)spicaminyl-amino]purine] | 6 | 99 | 0.09 | 4 | –
CCCCCC/C=C\CCCCCCCC(=O)NCC(=O)N[C@@H]1[C@@H](O)[C@@H](O)[C@@H](Nc2ncnc3[nH]cnc23)O[C@H]1C(O)CO (stereo partly drawn) [SPK148, 6-[4,-N-(N'-cis-9-hexadecenoylglycyl)spicaminyl-amino]purine] | 3.4 | 94 | 0.21 | – | 4
O=C(CCCCCCCCCCCBr)NCC(=O)N[C@@H]1[C@@H](O)[C@@H](O)[C@@H](Nc2ncnc3[nH]cnc23)O[C@H]1C(O)CO (stereo partly shown) [SPK152, 6-[4'-N-(N'-12-bromododecanoylglycyl)spicaminyl-amino]purine] | 36 | 100 | 0.03 | 8 | –
CCCCCCCCCCC/C=C/C(=O)NCC(=O)N[C@@H]1[C@@H](O)[C@@H](O)[C@@H](Nc2ncnc3[nH]cnc23)O[C@H]1C(O)CO (stereo partly drawn) [SPK156, 6-[4'-N-(N'-trans-2-tetradecenoylglycyl)spicaminyl-amino]purine] | 3 | 92 | – | 4 | –
O=C(CCCCCCCCCCCCCCCF)NCC(=O)NC1C(O)C(O)C(Nc2ncnc3[nH]cnc23)OC1C(O)CO (stereo not shown) [SPK157, 6-[4,-N-(N'-16-fluorohexadecanoylglycyl)spicaminyl-amino]purine] | 1.6 | 98 | 0.11 | – | 4
CCCCCCCCCCC(F)C(=O)NCC(=O)NC1C(O)C(O)C(Nc2ncnc3[nH]cnc23)OC1C(O)CO (stereo not shown) [SPK159, 6-[4'-N-(N'-2-fluorododecanoylglycyl)spicaminyl-amino]purine] | 24 | 96 | – | 4 | –
O=C(CCCCCCCCCCI)NCC(=O)NC1C(O)C(O)C(Nc2ncnc3[nH]cnc23)OC1C(O)CO (stereo not shown) [SPK165, 6-[4'-N-(N'-11-iodoundecanoylglycyl)spicaminyl-amino]purine] | 24 | 86 | – | – | –
N#CCCCCCCCCCCCCCCCC(=O)NCC(=O)NC1C(O)C(O)C(Nc2ncnc3[nH]cnc23)OC1C(O)CO (stereo not shown) [SPK177, 6-[4'-N-(N'-16-cyanohexadecanoylglycyl)-spicaminyl-amino]purine] | 13.5 | 99 | – | 4 | –
CCCCCCCCCCCCC(F)(F)C(=O)NCC(=O)NC1C(O)C(O)C(Nc2ncnc3[nH]cnc23)OC1C(O)CO (stereo not shown) [SPK182, 6-[4,-N-(N'-2,2-difluorotetradecanoylglycyl)spicaminyl-amino]purine] | 36 | 90 | 0.24 | 8 | –
CCCCCCCCCCCCC/C=C/C(=O)NCC(=O)N[C@@H]1[C@@H](O)[C@@H](O)[C@@H](Nc2ncnc3[nH]cnc23)O[C@H]1C(O)CO (stereo partly drawn) [SPK188, 6-[4'-N-(N'-trans-2-hexadecenoylglycyl)spicaminyl-amino]purine] | 0.6 | 92 | – | – | –
CCCCCCCCCCCCCC(CC(=O)NCC(=O)NC1C(O)C(O)C(Nc2ncnc3[nH]cnc23)OC1C(O)CO)OC(C)=O (stereo not shown) [SPK189, 6-[4'-N-(N'-3-acetoxyhexadecanoylglycyl)-spicaminyl-amino]purine] | 6 | 98 | 0.09 | 4 | –
CCCCCCCCCCCCCC[C@@H](OC(C)=O)C(=O)NCC(=O)NC1C(O)C(O)C(Nc2ncnc3[nH]cnc23)OC1C(O)CO (stereo partly drawn) [SPK198, 6-[4'-N-(N'-(R) -2-acetoxyhexadecanoylglycyl)-spicaminyl-amino]purine] | 1.5 | 82 | – | – | –
CCCC/C=C\CCCCCCCC(=O)NCC(=O)N[C@@H]1[C@@H](O)[C@@H](O)[C@@H](Nc2ncnc3[nH]cnc23)O[C@H]1C(O)CO (stereo partly drawn) [SPK231, 6-[4,-N-(N'-cis-9-tetradecenoylglycyl)spicaminyl-amino]purine] | 6 | 96 | 0.12 | 6 | –
CCCCS(=O)(=O)OCCCCCCCCCCCC(=O)NCC(=O)NC1C(O)C(O)C(Nc2ncnc3[nH]cnc23)OC1C(O)CO (stereo not shown) [SPK232, 6-[4'-N-(N'-12-butanesulfonyloxydodecanoylglycyl)spicaminyl-amino]purine] | 24 | 96 | – | 4 | –
CCCCCCCCCCCCCCC(F)C(=O)NCC(=O)NC1C(O)C(O)C(Nc2ncnc3[nH]cnc23)OC1C(O)CO (stereo not shown) [SPK233, 6-[4'-N-(N'-2-fluorohexadecanoylglycyl)spicaminyl-amino]purine] | 2.7 | 96 | 0.13 | – | 4
O=C(CCCCCCCCCCCCCCF)NCC(=O)NC1C(O)C(O)C(Nc2ncnc3[nH]cnc23)OC1C(O)CO (stereo not shown) [SPK247, 6-[4,-N-(N'-15-fluoropentadecanoylglycyl)spicaminyl-amino]purine] | 6 | 96 | 0.16 | 8 | –
